Test results reported in patent US20240279263A1, “NOVEL SEA ALGAE-DERIVED ALKYL-AGARBIOSIDE, PREPARATION METHOD THEREFOR, OR USE THEREOF” (KOREA UNIVERSITY RESEARCH AND BUSINESS FOUNDATION, priority 2021, published 2024).

Columns and labels:
HaCaT cells = experiment: MTT cytotoxicity test in HaCaT keratinocytes; format: cell-based, human; conditions: for Cytotoxicity: HaCaT cells, AB below 100 µg/mL
Protocol: Cytotoxicity tests were performed using the MTT(3-4,5-dimethylthiazol-2yl)-2,5-diphenyl-2H-tetrazolium bromide) assay. HaCaT cells were cultured in an animal cell incubator at 37° C. and 5% CO2 in a laboratory using Dulbecco's Modified Eagle Medium (DMEM) containing 10% (v/v) FBS, 100 U/mL penicillin, and 100 µg/mL streptomycin as antibiotics. The produced AB was dissolved in DMSO and added to the culture medium at […], and cells were cultured in the medium for 24 hours. The cells were treated with an MTT solution (5 mg/mL) and cultured for another 4 hours, and then an amount of the produced formazan as a blue crystal, was measured by measuring absorbance at 595 nm using an ELISA reader. Toxicity to cells was expressed as a percentage of the average absorbance value of each control group. To investigate the cytotoxicity of AB in HaCaT keratinocytes, when AB was treated at a concentration of […], the degree of change in cell proliferation was calculated compared to control groups treated with only DMSO. The results of Example 1 are shown in A of FIG. 1.
B of FIG. 1 illustrates the presence or absence of a cytotoxic effect when HaCaT keratinocytes are treated with AB according to an example of the present invention. Cell viability was measured to be 100% or more at 100 µg/mL AB.

HAS2 [1] = experiment: HAS2 expression in HaCaT cells by Western blot (moisturizing effect); format: cell-based, human; conditions: for HAS2 expression compared to L-AHG: same concentration (100 μg/mL, FIG. 7)
Excerpt: Hyaluronan (HA) is a glycosaminoglycan composed of D-glucuronic acid and N-acetyl-D-glucosamine. Due to its ability to retain large amounts of water, HA plays an important role in regulating hydration and osmotic pressure. […] is synthesized in cell membranes by HAS1, HAS2, and HAS3, and HAS2 in particular appears in human normal tissues. […] Therefore, increasing HAS2 expression may be a great strategy to maintain skin homeostasis. To determine the AB induction time and AB concentration for HAS2 expression, Western blot analysis was performed. Cells used for the analysis were HaCaT cells, which were cultured at 37° C. in a 5% CO2 atmosphere using DMEM with 10% FBS and penicillin/streptomycin. Cells (1×10^5) were cultured in 6-cm dishes for 24 hours and then starved in serum-free medium for another 24 hours to remove the FBS effect on the activation of the kinase. Then, AB was treated at a certain time and concentration. Cells were lysed with a lysis buffer [20 mM Tris-HCl (pH 7.5), 150 mM NaCl, 1 mM Na2EDTA, 1 mM EGTA, 1% Triton X-100, 2.5 mM sodium pyrophosphate, 1 mM β-glycerophosphate, 1 mM Na3VO4, […] leupeptin, 1 mM phenylmethylsulfonyl fluoride (PMSF), and a protease inhibitor cocktail tablet]. The protein concentration was measured using a dye-conjugated protein assay kit (Bio-Rad Laboratories Inc.) according to the manufacturer's instructions. Dissolved proteins (20-40 μg) were subjected to 10% SDS-PAGE and transferred to a polyvinylidene fluoride (PVDF) membrane by electrophoresis (Millipore Corp., Bedford, MA, USA). After blotting, the membrane was blocked with 5% skim milk for 2 hours and incubated overnight at 4° C. with a primary antibody […]. Subsequently, the membrane was incubated with a secondary antibody (goat anti-rabbit IgG HRP-conjugated secondary antibody), and the protein bound to the antibody was detected using a chemiluminescence detection kit (Amersham Pharmacia Biotech, Piscataway, NJ). Representative values of two independent experiments were used as data. […] The moisturizing activity of AB was confirmed from the result.

[2] = pH stability (degree of denaturation over time at 25° C.); format: physicochemical; conditions: for Stability over time at pH 3: pH 3 (20 mM citrate); for Stability over time at pH 7: pH 7 (20 mM Tris-HCl)
Protocol: The pH stability of AB was assessed (C of FIG. 1). For a pH stability experiment, the degree of denaturation in each sample (AB) over time was measured at 25° C. under conditions of pH 3 (20 mM citrate), pH 7 (20 mM Tris-HCl), and pH 9 (20 mM Tris-HCl). […] Since the buffer and AB peaks were not separated at pH 3 using HPLC, AB was quantified through GC/MS analysis. The derivatization process for GC/MS analysis is as follows. After drying a purified sample with a speed vac, 10 μL of 40 mg/mL O-methylhydroxylamine hydrochloride in pyridine was added and reacted at 30° ° C. and 200 rpm for 90 minutes. Then, 45 μL of N-methyl-N-(trimethylsilyl)trifluoroacetamide was added and reacted at 37° C. and 200 rpm for 30 minutes. Instrument conditions for GC/MS analysis are as follows. A DB5-MS capillary column was used in the analysis, and the GC column temperature condition was maintained at 50° C. for 1 minute and then raised to 280° C. and maintained for 5 minutes. 1 μL of sample was analyzed in a splitless mode. Each concentration of […] at pH 7 and pH 9 was analyzed using HPLC. HPX-87H was used as a column, and the sample was analyzed at a column temperature of 65° C. and a flow rate of 0.5 mL/min. 0.005 M sulfuric acid was used as a mobile phase.

[3] = Temperature stability (denaturation/decomposition over time); format: physicochemical; conditions: for Time for which stability was maintained at 4° C. / Time for which stability was maintained at 30° C.: HPLC
Protocol: The temperature stability of agarobiose was tested. The experimental method measured the denaturation/decomposition degrees of AB and ethyl-agarobioside over time at 4° C., 30° C., and 45° C. […] AB and ethyl-agarobioside were quantified using HPLC.

HAS2 [4] = conditions: Korean Registered Patent No. 10-1525298; cited from earlier work

Row | Time to complete denaturation / decomposition at pH 9 ([2]; pH 9 (20 mM Tris-HCl)) [weeks] | Structure (SMILES) | Cytotoxicity (HaCaT cells) | Cell viability (HaCaT cells; HaCaT keratinocytes, 24 hours, 100 µg/mL AB, vs DMSO control) [%] | HAS2 expression, concentration dependence (HAS2 [1]; Western blot) | HAS2 expression (HAS2 [1]; Western blot, 3 hours after treatment) | HAS2 expression compared to L-AHG (HAS2 [1]) | Stability over time at pH 3 [2] | Stability over time at pH 7 [2] | Stability at 45° C. [3] | Time for which stability was maintained at 4° C. [3] [weeks] | Time for which stability was maintained at 30° C. [3] [weeks] | Moisturizing activity (HAS2 expression level) (HAS2 [1]; same manner as Example 1) | Stability over time at pH 9 ([2]; pH 9 (20 mM Tris-HCl)) | Conversion product at 45° C. ([3]; 45° C., HPLC analysis of reactant components) | Moisturizing activity in HaCaT cells (previous study) (HAS2 [4])
1 | ≤ 6 | OC[C@H]1O[C@@H](O[C@H]2[C@H]3OC[C@@H]2OC(O)[C@H]3O)[C@H](O)[C@@H](O)[C@H]1O (mixture of isomers) [AB, agarobiose] | no cytotoxicity | ≥ 100 | increased HAS2 expression in a concentration-dependent manner | increased HAS2 expression | greatly increased | stable | stable | stability slowly decreased | 15 | 15 |  |  |  | 
2 |  | CCOC1O[C@H]2CO[C@H]([C@@H]2O[C@@H]2O[C@H](CO)[C@H](O)[C@H](O)[C@H]2O)[C@@H]1O (stereo partly shown) [ethyl-agarobioside] | without cytotoxicity |  |  |  | greatly increased | maintained | maintained | less stable than AB after 6 weeks | 15 | 15 | exhibits moisturizing activity | maintained | converted to AB | 
3 |  | O=C[C@@H](O)[C@@H]1OC[C@H](O)[C@H]1O [L-AHG, 3,6-anhydro-L-galactose] |  |  |  |  |  |  |  |  |  |  |  |  |  | has moisturizing activity
